Experimental data taken from PMC3639963, “A New Class of Small Molecule Inhibitor of BMP Signaling” (PLoS ONE, 2013).
Values joined by “and” are separate entries in the source; they are usually repeats but may differ in a detail not shown here. Equal entries are not always repeated.

Assays:
[1] = test system: mRFP under control of a BMP response element; test: Western blot for mRFP in Tg(BRE:mRFP) embryos; assay type: in vivo, zebrafish; conditions: 26 hours old embryos
Experimental: Inhibitor stocks were diluted in DMSO and then further diluted in fish water to give the required inhibitor concentrations. To minimize the amount of inhibitors used, experiments were performed in 24-well plates with approximately 20 embryos per well in a volume of 1 mL. The chemical treatment was applied by immersing 8- to 16-cell stage Tg(BRE:mRFP) embryos (dorsalization experiment) or 12 hours old Tg(fli1a:eGFP) embryos (ISV experiment) in the fish water supplemented with DMSO or the chemical inhibitors. For the ISV experiment, embryos were manually dechorionated after bud stage before treatment. Embryos were scored and photographed at 26 or 48 hours.
Ten non-dechorionated 26 hours old treated Tg(BRE:mRFP) embryos were snap frozen on dry ice and stored at −80°C. Protein extracts were prepared as described previously for Xenopus embryos. Extraction buffer was freshly prepared. 10 µL per embryo of the protein extract buffer was used to lyse the embryos using a plastic pestle and a pellet pestle motor (Kontes). 40 µg (∼ 1 embryo equivalent) of protein extract was loaded per lane on a 12.5% SDS-PAGE gel. The rabbit anti-mRFP (Invitrogen, R10367) and the goat anti-MCM6 (Santa Cruz, sc-9843) antibodies were used for Western blots.

[2] = test system: panel of 200 human kinases; test: Kinome-wide selectivity, number of kinases inhibited; assay type: biochemical; conditions: 1 µM inhibitor; 200 kinases
Experimental: Percentage inhibition was determined for each kinase at both 0.1 µM and 1 µM inhibitor concentration (supplemental Table S2). […]. […]. When visualized on a kinase phylogenetic tree, these were primarily clustered within the receptor tyrosine kinases (TKs) as well as the calmodulin-dependent kinases (CAMKs) (Figure 2C).
Inhibitor selectivity profiling against 200 human kinases at 0.1 and 1 µM inhibitor concentration was performed by Nanosyn (www.nanosyn.com).

[3] = biological target: T1, ALK5 (Homo sapiens, UniProt P36897); test: DSF thermal shift; assay type: binding; conditions: 10 µM inhibitor; read-out: Tm shift
T1 construct: purchased Nanosyn (enzymatic panel); SGC in-house recombinant human kinases (DSF panel); Invitrogen (ALK1-6)
Method in brief: (§1)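 Recombinant human kinase domains at 1–2 µM were melted in a real-time PCR instrument in the presence of 10 µM inhibitor, and thermal stability was monitored.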

[4] = biological target: T2, BMX (Homo sapiens, UniProt P51813); test: DSF thermal shift; assay type: binding; conditions: 10 µM inhibitor; read-out: Tm shift
T2 construct: purchased Nanosyn (enzymatic panel); SGC in-house recombinant human kinases (DSF panel); Invitrogen (ALK1-6)
T2 sequence (P51813 1-675): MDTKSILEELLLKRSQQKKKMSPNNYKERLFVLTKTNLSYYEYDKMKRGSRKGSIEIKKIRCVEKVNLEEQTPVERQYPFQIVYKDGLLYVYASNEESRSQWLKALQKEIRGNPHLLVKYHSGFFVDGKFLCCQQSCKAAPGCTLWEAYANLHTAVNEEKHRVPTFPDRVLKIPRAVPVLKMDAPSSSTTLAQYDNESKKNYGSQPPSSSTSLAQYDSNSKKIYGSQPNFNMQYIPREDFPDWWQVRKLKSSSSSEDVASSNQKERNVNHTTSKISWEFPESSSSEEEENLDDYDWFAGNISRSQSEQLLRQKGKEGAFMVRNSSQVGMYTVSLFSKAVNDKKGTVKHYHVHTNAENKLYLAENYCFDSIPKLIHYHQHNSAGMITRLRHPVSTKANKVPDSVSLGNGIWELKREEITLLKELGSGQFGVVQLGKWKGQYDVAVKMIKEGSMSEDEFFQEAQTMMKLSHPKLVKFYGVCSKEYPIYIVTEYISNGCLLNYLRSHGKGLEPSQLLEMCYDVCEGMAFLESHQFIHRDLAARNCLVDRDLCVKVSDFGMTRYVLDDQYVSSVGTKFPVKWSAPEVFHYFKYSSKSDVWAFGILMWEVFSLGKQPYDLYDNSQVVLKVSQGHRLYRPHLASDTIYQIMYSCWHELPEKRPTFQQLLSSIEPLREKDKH
Method in brief: as §1

[5] = biological target: T3, p38β (Homo sapiens, UniProt Q15759); test: DSF thermal shift; assay type: binding; conditions: 10 µM inhibitor; read-out: Tm shift
T3 construct: purchased Nanosyn (enzymatic panel); SGC in-house recombinant human kinases (DSF panel); Invitrogen (ALK1-6)
Method in brief: as §1

[6] = biological target: T4, ALK6 (Homo sapiens, UniProt O00238); test: DSF thermal shift; assay type: binding; conditions: 10 µM inhibitor; read-out: Tm shift
T4 construct: purchased Nanosyn (enzymatic panel); SGC in-house recombinant human kinases (DSF panel); Invitrogen (ALK1-6)
Method in brief: as §1

[7] = biological target: T5, CK1γ3 (Homo sapiens, UniProt Q9Y6M4); test: DSF thermal shift; assay type: binding; conditions: 10 µM inhibitor; read-out: Tm shift
T5 construct: purchased Nanosyn (enzymatic panel); SGC in-house recombinant human kinases (DSF panel); Invitrogen (ALK1-6)
Method in brief: as §1

[8] = biological target: T6, DAPK3 (Homo sapiens, UniProt O43293); test: DSF thermal shift; assay type: binding; conditions: 10 µM inhibitor; read-out: Tm shift
T6 construct: purchased Nanosyn (enzymatic panel); SGC in-house recombinant human kinases (DSF panel); Invitrogen (ALK1-6)
Method in brief: as §1

[9] = biological target: T7, ALK3 (Homo sapiens, UniProt P36894); test: In vitro kinase assay ([γ-32P]ATP); assay type: biochemical; conditions: at the Km value of ATP; triplicate
T7 construct: purchased Nanosyn (enzymatic panel); SGC in-house recombinant human kinases (DSF panel); Invitrogen (ALK1-6)
Experimental: (§2) Inhibitors were added at concentrations between 0 and 10 µM in kinase reaction buffer and tested in triplicate.

[10] = biological target: T8, ALK4 (Homo sapiens, UniProt P36896); test: In vitro kinase assay ([γ-32P]ATP); assay type: biochemical; conditions: at the Km value of ATP; triplicate
T8 construct: purchased Invitrogen
T8 sequence (P36896 24-505): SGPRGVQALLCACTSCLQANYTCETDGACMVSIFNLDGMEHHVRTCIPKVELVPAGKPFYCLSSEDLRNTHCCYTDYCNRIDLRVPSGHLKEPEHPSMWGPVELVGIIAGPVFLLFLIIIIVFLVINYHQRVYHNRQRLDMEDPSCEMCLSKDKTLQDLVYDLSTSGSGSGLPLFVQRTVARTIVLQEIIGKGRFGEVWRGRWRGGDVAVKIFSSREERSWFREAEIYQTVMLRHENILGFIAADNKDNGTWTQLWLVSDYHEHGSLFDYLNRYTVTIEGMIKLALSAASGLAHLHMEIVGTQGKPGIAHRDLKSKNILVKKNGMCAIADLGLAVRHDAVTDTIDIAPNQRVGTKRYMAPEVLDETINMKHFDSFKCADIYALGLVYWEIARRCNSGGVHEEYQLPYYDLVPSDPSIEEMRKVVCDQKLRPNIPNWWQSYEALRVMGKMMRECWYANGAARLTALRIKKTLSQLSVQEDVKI
Experimental: as §2

[11] = biological target: T9, ALK1 (Homo sapiens, UniProt P37023); test: In vitro kinase assay ([γ-32P]ATP); assay type: biochemical; conditions: at the Km value of ATP; triplicate
T9 construct: purchased Nanosyn (enzymatic panel); SGC in-house recombinant human kinases (DSF panel); Invitrogen (ALK1-6)
Experimental: as §2

[12] = biological target: T4, ALK6; test: In vitro kinase assay ([γ-32P]ATP); assay type: biochemical; conditions: at the Km value of ATP; triplicate
Experimental: as §2

[13] = test system: C2C12 cells; conditions: cited from earlier work
[14] = test system: ALK2; design: method as in PMID 19914855; conditions: read-out: reported in vitro IC50 (enzymatic assays); cited from earlier work

T4 sequence (O00238 14-502): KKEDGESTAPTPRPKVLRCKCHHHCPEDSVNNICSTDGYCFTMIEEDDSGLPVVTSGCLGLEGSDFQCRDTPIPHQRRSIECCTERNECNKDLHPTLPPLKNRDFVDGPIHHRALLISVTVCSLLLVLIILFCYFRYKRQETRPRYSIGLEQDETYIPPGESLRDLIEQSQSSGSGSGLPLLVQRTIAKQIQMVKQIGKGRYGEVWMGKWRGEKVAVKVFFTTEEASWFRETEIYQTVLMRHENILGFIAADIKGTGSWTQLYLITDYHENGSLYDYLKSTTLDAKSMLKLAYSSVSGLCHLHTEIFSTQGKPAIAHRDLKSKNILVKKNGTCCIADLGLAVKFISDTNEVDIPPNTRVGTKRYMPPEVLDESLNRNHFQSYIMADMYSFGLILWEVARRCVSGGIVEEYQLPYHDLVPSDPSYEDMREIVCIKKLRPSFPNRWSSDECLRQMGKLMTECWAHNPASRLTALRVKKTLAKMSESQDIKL
T6 sequence (O43293 whole entry): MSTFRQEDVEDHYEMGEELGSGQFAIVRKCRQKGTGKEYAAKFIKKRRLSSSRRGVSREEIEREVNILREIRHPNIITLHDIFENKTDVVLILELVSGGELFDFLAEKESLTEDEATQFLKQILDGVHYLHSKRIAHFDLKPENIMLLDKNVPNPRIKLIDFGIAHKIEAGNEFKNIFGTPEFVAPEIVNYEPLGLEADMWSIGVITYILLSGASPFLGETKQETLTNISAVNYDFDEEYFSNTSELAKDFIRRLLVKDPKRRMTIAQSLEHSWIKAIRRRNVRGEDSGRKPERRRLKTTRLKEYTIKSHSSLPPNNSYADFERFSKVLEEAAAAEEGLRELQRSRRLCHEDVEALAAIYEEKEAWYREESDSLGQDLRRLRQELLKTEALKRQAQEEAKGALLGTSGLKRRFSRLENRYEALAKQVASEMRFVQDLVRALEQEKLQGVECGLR
T5 sequence (Q9Y6M4 whole entry): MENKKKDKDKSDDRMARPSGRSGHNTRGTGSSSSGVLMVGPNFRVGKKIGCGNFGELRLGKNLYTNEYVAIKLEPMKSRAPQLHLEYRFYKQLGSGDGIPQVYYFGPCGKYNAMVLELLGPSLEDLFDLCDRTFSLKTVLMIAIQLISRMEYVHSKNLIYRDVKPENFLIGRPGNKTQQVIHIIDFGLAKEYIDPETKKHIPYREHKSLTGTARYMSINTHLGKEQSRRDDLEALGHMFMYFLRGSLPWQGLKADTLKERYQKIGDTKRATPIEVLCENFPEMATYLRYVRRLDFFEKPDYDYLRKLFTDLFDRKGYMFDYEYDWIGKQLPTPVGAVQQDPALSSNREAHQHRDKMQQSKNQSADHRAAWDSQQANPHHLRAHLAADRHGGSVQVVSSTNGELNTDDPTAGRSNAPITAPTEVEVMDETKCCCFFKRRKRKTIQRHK
T1 sequence (P36897 34-503): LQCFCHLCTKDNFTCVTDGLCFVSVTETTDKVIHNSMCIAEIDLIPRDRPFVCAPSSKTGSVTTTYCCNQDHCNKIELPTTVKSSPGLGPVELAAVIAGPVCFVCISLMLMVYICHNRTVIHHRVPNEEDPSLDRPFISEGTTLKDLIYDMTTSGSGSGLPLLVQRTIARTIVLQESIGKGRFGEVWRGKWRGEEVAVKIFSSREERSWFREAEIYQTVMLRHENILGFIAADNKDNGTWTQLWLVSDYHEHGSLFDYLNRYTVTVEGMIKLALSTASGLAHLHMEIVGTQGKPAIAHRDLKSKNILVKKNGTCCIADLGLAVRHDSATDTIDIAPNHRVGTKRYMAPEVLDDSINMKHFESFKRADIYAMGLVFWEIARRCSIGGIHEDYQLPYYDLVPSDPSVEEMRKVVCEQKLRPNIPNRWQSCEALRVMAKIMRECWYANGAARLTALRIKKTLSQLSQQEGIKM
T9 sequence (P37023 22-503): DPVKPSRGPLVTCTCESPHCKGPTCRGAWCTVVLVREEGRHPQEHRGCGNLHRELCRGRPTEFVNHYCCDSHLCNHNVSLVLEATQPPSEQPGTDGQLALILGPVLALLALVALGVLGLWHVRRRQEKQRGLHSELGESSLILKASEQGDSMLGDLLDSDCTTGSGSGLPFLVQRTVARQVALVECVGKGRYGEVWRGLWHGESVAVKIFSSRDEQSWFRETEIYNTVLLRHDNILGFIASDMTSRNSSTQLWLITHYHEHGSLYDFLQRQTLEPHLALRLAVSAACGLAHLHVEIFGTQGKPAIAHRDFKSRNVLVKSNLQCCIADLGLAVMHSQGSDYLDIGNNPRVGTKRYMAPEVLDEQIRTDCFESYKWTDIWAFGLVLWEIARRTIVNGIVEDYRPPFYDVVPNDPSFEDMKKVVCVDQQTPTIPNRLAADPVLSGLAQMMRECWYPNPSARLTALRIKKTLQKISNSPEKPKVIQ
T3 sequence (Q15759 whole entry): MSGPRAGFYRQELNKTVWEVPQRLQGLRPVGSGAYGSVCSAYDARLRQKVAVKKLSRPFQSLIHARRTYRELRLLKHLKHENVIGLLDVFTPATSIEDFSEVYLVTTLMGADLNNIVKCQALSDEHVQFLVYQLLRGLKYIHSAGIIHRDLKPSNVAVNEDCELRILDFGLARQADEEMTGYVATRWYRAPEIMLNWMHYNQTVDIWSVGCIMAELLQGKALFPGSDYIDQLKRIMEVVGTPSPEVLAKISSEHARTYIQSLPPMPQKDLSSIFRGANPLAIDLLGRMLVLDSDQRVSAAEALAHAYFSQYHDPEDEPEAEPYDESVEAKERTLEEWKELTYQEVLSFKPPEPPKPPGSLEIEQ
T7 sequence (P36894 24-532): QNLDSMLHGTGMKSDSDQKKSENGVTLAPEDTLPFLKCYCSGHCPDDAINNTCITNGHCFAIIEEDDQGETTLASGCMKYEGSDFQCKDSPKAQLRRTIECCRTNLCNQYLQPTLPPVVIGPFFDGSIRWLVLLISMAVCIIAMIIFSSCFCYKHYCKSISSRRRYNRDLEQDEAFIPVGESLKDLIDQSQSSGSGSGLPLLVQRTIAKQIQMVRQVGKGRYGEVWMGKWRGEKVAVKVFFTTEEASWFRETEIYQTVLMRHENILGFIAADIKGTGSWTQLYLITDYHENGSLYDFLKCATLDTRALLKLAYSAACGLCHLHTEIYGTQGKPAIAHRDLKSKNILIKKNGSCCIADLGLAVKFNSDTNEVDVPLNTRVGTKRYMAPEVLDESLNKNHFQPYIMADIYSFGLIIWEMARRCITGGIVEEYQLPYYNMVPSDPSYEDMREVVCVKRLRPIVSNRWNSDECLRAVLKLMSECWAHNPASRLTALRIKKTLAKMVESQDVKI

Row | ΔTm at 10 µM [3] | ΔTm at 10 µM [4] | ΔTm at 10 µM [5] | ΔTm at 10 µM [6] | ΔTm at 10 µM [7] | ΔTm at 10 µM [8] | IC50 [9] | IC50 [10] | IC50 [11] | IC50 [12] | Structure (SMILES) | concentration at which loss of mRFP protein was evident [1] | further kinases with >50% inhibition (beyond ABL and ARG) [2] | number of kinases with >50% inhibition [2] | IC50 [13] | IC50 [14]
1 | 11.6 °C | 1 °C | 0.5 °C | 13.9 °C | 2 °C | 0.2 °C | 34.4 nM | 302 nM | 1.8 nM and 1 to 2 nM | 6.4 nM | COc1cc(-c2cc(-c3cccc(O)c3)cnc2N)cc(OC)c1OC [K02288, 3-[6-amino-5-(3,4,5-trimethoxy-phenyl)-pyridin-3-yl]-phenol] | 8 to 10 µM | 6 kinases | – | – | –
2 | – | – | – | – | – | – | – | – | – | – | c1ccc2c(-c3cnn4cc(-c5ccc(N6CCNCC6)cc5)cnc34)ccnc2c1 [LDN-193189] | – | – | 21 kinases | – | –
3 | 7.4 °C | 1.4 °C | 1.1 °C | 12.4 °C | 1.2 °C | 1.2 °C | – | – | – | – | c1cc(-c2cnn3cc(-c4ccc(OCCN5CCCCC5)cc4)cnc23)ccn1 [Dorsomorphin] | – | – | – | ~500 nM | 50 nM
